Patent US20230183219A1, “CONDENSED SUBSTITUTED HYDROPYRROLES AS ANTAGONISTS OF THE MUSCARINIC ACETYLCHOLINE RECEPTOR M4” (Vanderbilt University, priority 2020, published 2023)

Target: T1, Human M4 (Homo sapiens, UniProt P08173)
T1 construct: Human or rat M4 cDNA, along with the chimeric G protein Gqi5, were transfected into Chinese hamster ovary (CHO-K1) cells; expressed in transfected cells; host or cells: CHO-K1 (Chinese hamster ovary, ATCC), stably co-expressing Gqi5
T1 sequence (P08173 1-479): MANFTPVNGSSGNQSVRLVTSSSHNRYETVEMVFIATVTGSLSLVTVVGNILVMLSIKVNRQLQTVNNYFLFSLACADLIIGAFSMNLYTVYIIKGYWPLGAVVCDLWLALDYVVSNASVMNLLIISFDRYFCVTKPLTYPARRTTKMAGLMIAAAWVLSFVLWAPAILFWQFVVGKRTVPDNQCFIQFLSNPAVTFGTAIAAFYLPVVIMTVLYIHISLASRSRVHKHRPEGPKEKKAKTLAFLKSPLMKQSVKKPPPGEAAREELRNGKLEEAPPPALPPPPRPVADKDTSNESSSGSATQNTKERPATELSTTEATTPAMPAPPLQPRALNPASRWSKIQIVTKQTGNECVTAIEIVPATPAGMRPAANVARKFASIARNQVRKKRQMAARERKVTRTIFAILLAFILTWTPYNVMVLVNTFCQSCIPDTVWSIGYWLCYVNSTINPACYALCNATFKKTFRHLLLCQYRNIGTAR
Experiment: mAChR M4 cell-based functional assay (calcium flux, decrease of EC80 acetylcholine response)
Conditions: for remaining activity at 30 µM: read-out: Human M4 Emin; for IC50: M4/Gqi5/CHO-K1 cells, decrease of response to EC80 acetylcholine
Description: Human or rat M4 cDNA, along with the chimeric G protein Gqi5, were transfected into Chinese hamster ovary (CHO-K1) cells purchased from the American Type Culture Collection using Lipofectamine2000. M4/Gqi5/CHO cells were grown in Ham's F-12 medium containing 10% heat-inactivated fetal bovine serum (FBS), 20 mM HEPES, 500 μg/mL G418 sulfate, and 200 μg/mL Hygromycin B.
For high throughput measurement of agonist-evoked increases in intracellular calcium, CHO-K1 cells stably expressing muscarinic receptors were plated in growth medium lacking G418 and hygromycin at 15,000 cells/20 μL/well in Greiner 384-well black-walled, tissue culture (TC)-treated, clear-bottom plates (VWR). Cells were incubated overnight at 37° C. and 5% CO2. The next day, cells were washed using an ELX 405 (BioTek) with assay buffer; the final volume was then aspirated to 20 μL. Next, 20 μL of a 2.3 μM stock of Fluo-4/acetoxymethyl ester (Invitrogen, Carlsbad, Calif.), prepared as a 2.3 mM stock in DMSO and mixed in a 1:1 ratio with 10% (w/v) Pluronic F-127 and diluted in assay buffer, was added to the wells and the cell plates were incubated for 50 min at 37° C. and 5% CO2. Dye was removed by washing with the ELX 405 and the final volume was aspirated to 20 μL. Compound master plates were formatted in a 10 point concentration-response curve (CRC) format (1:3 dilutions) in 100% DMSO with a starting concentration of 10 or 1 mM using a BRAVO liquid handler (Agilent). Test compound CRCs were then transferred to daughter plates (240 nL) using the Echo acoustic plate reformatter (Labcyte, Sunnyvale, Calif.) and then diluted into assay buffer (40 μL) to a 2×stock using a Thermo Fisher Combi (Thermo Fisher Scientific, Waltham, Mass.).
Calcium flux was measured using the Functional Drug Screening System (FDSS) 6000 or 7000 (Hamamatsu Corporation, Tokyo, Japan) as an increase in the fluorescent static ratio. Compounds were applied to cells (20 μL, 2×) using the automated system of the FDSS at 2 seconds into the protocol and the data were collected at 1 Hz. At 143 s, 10 μL of an EC20 concentration of the muscarinic receptor agonist acetylcholine was added (5×), followed by the addition of 12 μL of an EC80 concentration of acetylcholine at the 268 s time point (5×). Agonist activity was analyzed as a concentration-dependent increase in calcium mobilization upon compound addition. Positive allosteric modulator activity was analyzed as a concentration-dependent increase in the EC20 acetylcholine response. Antagonist activity was analyzed as a concentration-dependent decrease in the EC80 acetylcholine response; for the purposes of the tables herein, an IC50 (inhibitory concentration 50) was calculated as a concentration-dependent decrease of the response elicited by an EC80 concentration of acetylcholine. Concentration-response curves were generated using a four-parameter logistical equation in XLFit curve fitting software (IDBS, Bridgewater, N.J.) for Excel (Microsoft, Redmond, Wash.) or Prism (GraphPad Software, Inc., San Diego, Calif.) or the Dotmatics software platform (Dotmatics, Bishop's Stortford, UK).
Compounds were synthesized as described above. Activity (IC50 and Emin) was determined in the mAChR M4 cell-based functional assay as described above and the data are shown in Table 2.

Compound	remaining activity at 30 µM (% ACh maximum at 30 μM)	IC50	Human M4 Emin (% ACh maximum at 30 μM)
[2H][C@@]1(Oc2cc(C(F)(F)F)c(-c3cc(F)ccc3C)nn2)C[C@H]2CN(CC3CCOCC3)C[C@H]2C1 [Example 133, (3aR,5s,6aS)-5-((6-(5-fluoro-2-methylphenyl)-5-(trifluoromethyl)pyridazin-3-yl)oxy)-2-((tetrahydro-2H-pyran-4-yl)methyl)octahydro-cyclopenta[c]pyrrole-5-d]	3%	217 nM	–
COc1ccc(F)c(-c2cc(C(F)(F)F)c(N[C@H]3C[C@@H]4CN(CC5CCOCC5)C[C@@H]4C3)nn2)c1 [Example 57, (3aR,5s,6aS)-N-(6-(2-fluoro-5-methoxyphenyl)-4-(trifluoromethyl)pyridazin-3-yl)-2-((tetrahydro-2H-pyran-4-yl)methyl)octahydro-cyclopenta[c]pyrrol-5-amine]	3%	278 nM	–
[2H]C([2H])(C1CCOCC1)N1C[C@H]2C[C@H](Nc3nnc(-c4ccc5c(c4)ncn5C)cc3C(F)(F)F)C[C@H]2C1 [Example 111, (3aR,5s,6aS)-N-(6-(1-methyl-1H-benzo[d]imidazol-5-yl)-4-(trifluoro-methyl)pyridazin-3-yl)-2-((tetrahydro-2H-pyran-4-yl)methyl-d2)octahydro-cyclopenta[c]pyrrol-5-amine]	3%	136 nM	–
CC(C)c1ccc(F)c(-c2cc(C(F)(F)F)c(N[C@H]3C[C@@H]4CN(CC5CCOCC5)C[C@@H]4C3)nn2)c1 [Example 96, (3aR,5s,6aS)-N-(6-(2-fluoro-5-isopropylphenyl)-4-(trifluoromethyl)pyridazin-3-yl)-2-((tetrahydro-2H-pyran-4-yl)methyl)octahydro-cyclopenta[c]pyrrol-5-amine]	3%	2040 nM	–
[2H]C([2H])(C1CCOCC1)N1C[C@H]2C[C@H](Nc3nnc(-c4ccc5c(cnn5C)c4)cc3C(F)(F)F)C[C@H]2C1 [Example 144, (3aR,5s,6aS)-N-(6-(1-methyl-1H-indazol-5-yl)-4-(trifluoromethyl)pyridazin-3-yl)-2-((tetrahydro-2H-pyran-4-yl)methyl)octahydro-cyclopenta[c]pyrrol-5-amine]	3%	71.3 nM	–
Cc1cc(F)c(F)c(-c2cc(C(F)(F)F)c(N[C@H]3C[C@@H]4CN(CC5CCOCC5)C[C@@H]4C3)nn2)c1 [Example 93, (3aR,5s,6aS)-N-(6-(2,3-difluoro-5-methylphenyl)-4-(trifluoromethyl)pyridazin-3-yl)-2-((tetrahydro-2H-pyran-4-yl)methyl)octahydro-cyclopenta[c]pyrrol-5-amine]	3%	172 nM	–
Cc1ccc(F)cc1-c1cc(C(F)(F)F)c(N[C@H]2C[C@@H]3CN(Cc4ccccn4)C[C@@H]3C2)nn1 [Example 103, (3aR,5s,6aS)-N-(6-(5-fluoro-2-methylphenyl)-4-(trifluoromethyl)pyridazin-3-yl)-2-(pyridin-2-ylmethyl)octahydro-cyclopenta[c]pyrrol-5-amine]	3%	95.7 nM	–
Cc1cc(CN2C[C@H]3C[C@H](Nc4ncc(-c5cc(F)ccc5Cl)cn4)C[C@H]3C2)ccc1F [Example 9, (3aR,5s,6aS)-N-(5-(2-chloro-5-fluorophenyl)pyrimidin-2-yl)-2-(4-fluoro-3-methylbenzyl)octahydro-cyclopenta[c]pyrrol-5-amine]	27%	> 10000 nM	–
[2H]C([2H])([2H])N(c1cc(C(F)(F)F)c(-c2cc(F)ccc2C)nn1)[C@H]1C[C@@H]2CN(CC3CCOCC3)C[C@@H]2C1 [Example 131, (3aR,5s,6aS)-N-(6-(5-fluoro-2-methylphenyl)-5-(trifluoromethyl)pyridazin-3-yl)-N-(methyl-d3)-2-((tetrahydro-2H-pyran-4-yl)methyl)octahydro-cyclopenta[c]pyrrol-5-amine]	2%	60.3 nM	–

Stronger by IC50, values ahead:

remaining activity at 30 µM (% ACh maximum at 30 μM)	IC50	Human M4 Emin (% ACh maximum at 30 μM)	Compound
3%	45.1 nM	–	Cn1ncc2cc(-c3cc(C(F)(F)F)c(N[C@H]4C[C@@H]5CN(CC6CCOCC6)C[C@@H]5C4)nn3)ccc21 [Example 75, (3aR,5s,6aS)-N-(6-(1-methyl-1H-indazol-5-yl)-4-(trifluoromethyl)pyridazin-3-yl)-2-((tetrahydro-2H-pyran-4-yl)methyl)octahydro-cyclopenta[c]pyrrol-5-amine]
–	10.1 nM	3%	Cc1ccc(F)cc1-c1cc(C(F)(F)F)c(N[C@H]2C[C@@H]3CN(CC4CCCOC4)C[C@@H]3C2)nn1 (single isomer, unassigned) [Example 121]
5%	54.9 nM	–	Cn1cc2cc(-c3cc(C#N)c(N[C@H]4C[C@@H]5CN(C[C@@H]6COCCO6)C[C@@H]5C4)nn3)ccc2n1 [Example 157, 3-(((3aR,5s,6aS)-2-(((R)-1,4-dioxan-2-yl)methyl)octahydro-cyclopenta[c]pyrrol-5-yl)amino)-6-(2-methyl-2H-indazol-5-yl)pyridazine-4-carbonitrile]
2%	21.2 nM	–	FC1(F)CCCN(c2cc(C(F)(F)F)c(N[C@H]3C[C@@H]4CN(CC5CCOCC5)C[C@@H]4C3)nn2)C1 [Example 138, (3aR,5s,6aS)-N-(6-(3,3-difluoro-piperidin-1-yl)-4-(trifluoro-methyl)pyridazin-3-yl)-2-((tetrahydro-2H-pyran-4-yl)methyl)octahydro-cyclopenta[c]pyrrol-5-amine]
5%	2 nM	–	Cn1cc2cc(-c3cc(C#N)c(N[C@H]4C[C@@H]5CN(C[C@H]6CC7CCC6O7)C[C@@H]5C4)nn3)ccc2n1 (stereo partly drawn) [Example 161, 3-(((3aR,5s,6aS)-2-(((2R)-7-oxabicyclo[2.2.1]heptan-2-yl)methyl)octahydro-cyclopenta[c]pyrrol-5-yl)amino)-6-(2-methyl-2H-indazol-5-yl)pyridazine-4-carbonitrile]
14%	15.7 nM	–	Cn1cc2cc(-c3cc(C#N)c(N[C@H]4C[C@@H]5CN(CC6CCCOC6)C[C@@H]5C4)nn3)ccc2n1 (single isomer, unassigned) [Example 158]
3%	9.2 nM	–	[2H]C([2H])(C1CCOCC1)N1C[C@H]2C[C@H](Nc3nnc(-c4cc(F)ccc4Cl)cc3C(F)(F)F)C[C@H]2C1 [Example 16, (3aR,5s,6aS)-N-(6-(2-chloro-5-fluorophenyl)-4-(trifluoro-methyl)pyridazin-3-yl)-2-((tetrahydro-2H-pyran-4-yl)methyl-d2)octahydro-cyclopenta[c]pyrrol-5-amine]
2%	2.1 nM	–	Cc1c(-c2cc(C(F)(F)F)c(N[C@H]3C[C@@H]4CN(CC5CCOCC5)C[C@@H]4C3)nn2)ccc2nn(C)cc12 [Example 39, (3aR,5s,6aS)-N-(6-(2,4-dimethyl-2H-indazol-5-yl)-4-(trifluoromethyl)pyridazin-3-yl)-2-((tetrahydro-2H-pyran-4-yl)methyl)octahydro-cyclopenta[c]pyrrol-5-amine]
